Experimental data as given in US9844542B2, “Substituted imidazopyridine and triazolopyridine compounds as negative allosteric modulators of mGluR5” (Vanderbilt University, priority 2013, dated 2017).

target: T1, rat mGluR5 (Rattus norvegicus, UniProt P31424); experiment: mGluR5 calcium mobilization assay (FDSS, Fluo-4) in HEK 293A cells stably expressing rat mGluR5; type: cell-based; settings: HEK cells transfected with rat mGluR5; antagonism of glutamate EC80 response; ± = standard error of at least three experiments
T1 construct: expressed in transfected cells
Description: Human embryonic kidney (HEK) cells transfected with rat or human mGluR5 were plated in clear bottom assay plates for assay in a Functional Drug Screening System (FDSS). The cells were loaded with a Ca^2+-sensitive fluorescent dye (e.g., Fluo-4), and the plates were washed and placed in the FDSS instrument. Test compound was applied to cells 3 seconds after baseline readings were taken. Cells were incubated with the test compounds for 140 seconds and then stimulated with an EC20 concentration of an mGluR5 agonist (e.g., glutamate, 3,5-dihydroxyphenylglycine, or quisqualate); 60-80 seconds later an EC80 concentration of agonist was added and readings taken for an additional 40 seconds. Data were collected at 1 Hz. […] Concentration response curves were generated using a four parameter logistical equation.
The above described assay was operated in two modes. In the first mode (utilizing a triple add protocol), a range of concentrations of the present compounds were added to cells, followed by two single fixed concentrations of agonist (EC20 followed by EC80). If a compound acted as a potentiator, an EC50 value for potentiation of the EC20 response and a maximum extent of potentiation by the compound at this concentration of agonist was determined by non-linear curve fitting. If a compound acted as an antagonist, an IC50 value for antagonism of the EC80 response and a maximum extent of antagonism by the compound at this concentration of agonist was determined by non-linear curve fitting. In the second mode (utilizing a double add protocol), several fixed concentrations of the present compounds were added to various wells on a plate, followed by a range of concentrations of agonist for each concentration of present compound; the EC50 values for the agonist at each concentration of compound were determined by nonlinear curve fitting. A decrease in the EC50 value of the agonist with increasing concentrations of the present compounds (a leftward shift of the agonist concentration-response curve) is an indication of the degree of mGluR5 positive allosteric modulation at a given concentration of the present compound. An increase in the EC50 value of the agonist with increasing concentrations of the present compounds (a rightward shift of the agonist concentration response curve) is an indication of the degree of mGluR5 antagonism at a given concentration of the present compound. The second mode also indicates whether the present compounds also affect the maximum response to mGluR5 to agonists.
The mGluR5 activity was determined using the calcium mobilization assays in human embryonic kidney cells as described herein below, wherein the human embryonic kidney cells were transfected with rat mGluR5. The mGluR5 activity data for some compounds are shown as the average of at least three experiments with the standard error in these cases. If no error is indicated for the mGluR5 activity, the values given represent the results from a single experiment or the average of two experiments. The compounds in Table 1 were synthesized with methods identical or analogous to those shown herein. The requisite starting materials were commercially available, described in the literature, or readily synthesized by one skilled in the art of organic synthesis.
GluMax is the amplitude of response in the presence of 30 μM test compound as a percentage of maximal response (100 μM glutamate). Partial antagonists display concentration-response curves (CRCs) that plateau above 10%.
The preparation of rat mGluR5 stable cell-lines is as previously described (e.g. see Romano et al. J Biol. Chem. 1996 Nov. 8; 271(45):28612-6).

T1 sequence (P31424 21-1171 isoform P31424-2 limits assumed): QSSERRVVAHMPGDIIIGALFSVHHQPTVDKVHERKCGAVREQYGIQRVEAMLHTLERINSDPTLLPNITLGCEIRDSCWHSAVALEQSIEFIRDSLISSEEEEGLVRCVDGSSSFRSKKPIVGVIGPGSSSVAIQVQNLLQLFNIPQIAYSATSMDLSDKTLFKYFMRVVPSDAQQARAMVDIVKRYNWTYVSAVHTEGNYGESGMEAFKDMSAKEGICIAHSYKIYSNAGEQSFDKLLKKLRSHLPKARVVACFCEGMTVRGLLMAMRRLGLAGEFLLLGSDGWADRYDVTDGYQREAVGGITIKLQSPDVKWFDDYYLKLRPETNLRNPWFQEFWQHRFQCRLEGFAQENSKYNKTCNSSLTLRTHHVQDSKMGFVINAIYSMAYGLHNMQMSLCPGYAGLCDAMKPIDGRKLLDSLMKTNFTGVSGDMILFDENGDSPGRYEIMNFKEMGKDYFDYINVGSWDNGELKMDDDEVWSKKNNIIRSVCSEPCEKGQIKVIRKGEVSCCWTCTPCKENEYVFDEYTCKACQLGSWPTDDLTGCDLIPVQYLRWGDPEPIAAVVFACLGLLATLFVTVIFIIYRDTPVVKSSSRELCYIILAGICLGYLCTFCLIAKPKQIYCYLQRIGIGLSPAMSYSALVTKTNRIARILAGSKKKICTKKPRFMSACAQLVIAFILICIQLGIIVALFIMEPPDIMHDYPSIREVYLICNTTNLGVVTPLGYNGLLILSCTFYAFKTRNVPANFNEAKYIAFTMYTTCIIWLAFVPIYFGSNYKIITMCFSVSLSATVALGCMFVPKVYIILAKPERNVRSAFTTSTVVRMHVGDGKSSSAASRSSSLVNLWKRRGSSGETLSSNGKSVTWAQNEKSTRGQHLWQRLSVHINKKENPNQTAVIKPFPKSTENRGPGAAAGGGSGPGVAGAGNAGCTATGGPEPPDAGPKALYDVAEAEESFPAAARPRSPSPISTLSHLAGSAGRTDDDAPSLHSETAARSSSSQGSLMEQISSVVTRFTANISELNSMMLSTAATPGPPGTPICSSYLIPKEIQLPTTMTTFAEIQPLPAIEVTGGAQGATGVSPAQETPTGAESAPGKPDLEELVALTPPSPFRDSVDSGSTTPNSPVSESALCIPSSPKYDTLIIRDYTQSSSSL

IC50	SMILES
0.104 µM	[2H]c1nc(NC(=O)c2cc(Oc3cncc(OC)c3)cn3ncnc23)c([2H])c([2H])c1[2H]
0.468 µM	Cc1ccc(NC(=O)c2cc(Oc3cncc(F)c3)cn3nc(C)nc23)nc1
0.055 µM	[2H]c1nc(NC(=O)c2cc(Oc3cncc(C)c3)cn3ncnc23)c([2H])c([2H])c1[2H]
0.052 µM	O=C(Nc1ccccn1)c1cc(Oc2cnc(F)c(F)c2)cn2ncnc12
0.086 µM	O=C(Nc1ccccn1)c1cc(Oc2cc(F)cnc2F)cn2ncnc12
0.244 µM	O=C(Nc1nc(CF)cs1)c1cc(Oc2cncnc2)cn2ncnc12
0.214 µM	O=C(Nc1nc(C(F)F)cs1)c1cc(Oc2cncnc2)cn2ncnc12
0.119 µM	Cc1nc(NC(=O)c2cc(Oc3cccnc3)cn3ncnc23)ccc1F
0.04 µM	COc1cncc(Oc2cc(C(=O)Nc3ccccn3)c3nccn3c2)c1
1.07 µM	Cc1nnc2c(C(=O)Nc3cccc(F)n3)cc(Oc3cncc(F)c3)cn12
0.028 µM	O=C(Nc1ccccn1)c1cc(Oc2cccnc2)cn2ncnc12
> 10 µM	COc1cncc(Oc2cc(C(=O)Nc3cccc(OC)n3)c3nncn3c2)c1
0.083 µM	Cc1csc(NC(=O)c2cc(Oc3cncc(F)c3F)cn3ncnc23)n1
0.04 µM	O=C(Nc1ccc(F)cn1)c1cc(Oc2cncc(O)c2)cn2ncnc12
0.162 µM	COc1cccc(NC(=O)c2cc(Oc3cncnc3)cn3cnnc23)n1
0.073 µM	Cc1cccc(NC(=O)c2cc(Oc3cncc(F)c3)cn3cnnc23)n1
0.199 µM	Cc1cccc(NC(=O)c2cc(Oc3cncc(F)c3)cn3nc(C)nc23)n1
0.077 µM	Cc1ccc(NC(=O)c2cc(Oc3cncc(F)c3)cn3cnnc23)nc1
0.139 µM	COc1cncc(Oc2cc(C(=O)Nc3nc(C)cs3)c3ncnn3c2)c1
0.076 µM	O=C(Nc1ccc(F)cn1)c1cc(Oc2cncc(Cl)c2)cn2ccnc12
0.16 µM	Cc1cncc(Oc2cc(C(=O)Nc3cccc(C)n3)c3ncnn3c2)c1
0.559 µM	CCc1cccc(NC(=O)c2cc(Oc3cnc(F)c(F)c3)cn3ncnc23)n1
0.039 µM	O=C(Nc1ccc(F)cn1)c1cc(Oc2cncc(Cl)c2)cn2ncnc12
9.41 µM	Cc1ncc(Oc2cc(C(=O)Nc3ccccn3)c3nncn3c2)cn1
0.048 µM	Cc1ccc(NC(=O)c2cc(Oc3cncc(F)c3)cn3ccnc23)nc1
0.426 µM	Cc1csc(NC(=O)c2cc(Oc3cncc(F)c3)cn3c(C)nnc23)n1
0.306 µM	CCc1cccc(NC(=O)c2cc(Oc3cncnc3)cn3ncnc23)n1

IC50	SMILES
0.012 µM	O=C(Nc1ccc(F)cn1)c1cc(Oc2cncc(F)c2)cn2ccnc12
0.031 µM	O=C(Nc1cccc(F)n1)c1cc(Oc2cncc(F)c2)cn2ncnc12
0.264 µM	CCc1cccc(NC(=O)c2cc(Oc3cncc(Cl)c3)cn3ncnc23)n1
0.117 µM	O=C(Nc1cccc(F)n1)c1cc(Oc2cncnc2)cn2ncnc12
0.41 µM	Cc1nc2c(C(=O)Nc3cccc(F)n3)cc(Oc3cncc(F)c3)cn2n1
3.6 µM	COc1cncc(Oc2cc(C(=O)Nc3ccc(C)cn3)c3nncn3c2)c1
0.043 µM	[2H]c1nc(NC(=O)c2cc(Oc3cncc(F)c3)cn3ncnc23)c([2H])c([2H])c1[2H]
0.162 µM	O=C(Nc1ccc(F)cn1)c1cc(Oc2cncnc2)cn2cnnc12
0.026 µM	[2H]c1nc(NC(=O)c2cc(Oc3cccnc3)cn3ncnc23)c([2H])c([2H])c1[2H]
0.168 µM	CCc1cccc(NC(=O)c2cc(Oc3cncc(F)c3)cn3cnnc23)n1
3.31 µM	Cc1ncc(Oc2cc(C(=O)Nc3ccccn3)c3nccn3c2)cn1
2.15 µM	COc1cncc(Oc2cc(C(=O)Nc3cccc(C)n3)c3nncn3c2)c1
3.97 µM	COc1ccc(NC(=O)c2cc(Oc3cncc(OC)c3)cn3cnnc23)nc1
0.033 µM	O=C(Nc1ccccn1)c1cc(Oc2cncc(F)c2)cn2cnnc12
0.119 µM	Cc1csc(NC(=O)c2cc(Oc3cnc(F)c(F)c3)cn3ncnc23)n1
0.016 µM	O=C(Nc1ccccn1)c1cc(Oc2cncc(F)c2)cn2ccnc12
0.172 µM	Cc1nnc2c(C(=O)Nc3ccccn3)cc(Oc3cncc(F)c3)cn12
1.05 µM	Cc1ccc(NC(=O)c2cc(Oc3cncc(Cl)c3)cn3cnnc23)nc1
0.193 µM	Cc1csc(NC(=O)c2cc(Oc3cncc(C#N)c3)cn3ncnc23)n1
0.05 µM	O=C(Nc1cccc(F)n1)c1cc(Oc2cncc(F)c2)cn2cnnc12
0.31 µM	Cc1nc2c(C(=O)Nc3ccc(F)cn3)cc(Oc3cncc(F)c3)cn2n1
0.897 µM	COc1cncc(Oc2cc(C(=O)Nc3ccccn3)c3nncn3c2)c1
> 10 µM	Cc1ncc(Oc2cc(C(=O)Nc3ccc(F)cn3)c3nncn3c2)cn1
4.13 µM	COc1cncc(Oc2cc(C(=O)Nc3cccc(F)n3)c3nncn3c2)c1
0.114 µM	CCc1cccc(NC(=O)c2cc(Oc3cccnc3)cn3ncnc23)n1
0.164 µM	Cc1nc(NC(=O)c2cc(Oc3cncc(F)c3)cn3cnnc23)ccc1F
0.176 µM	O=C(Nc1ccccn1)c1cc(Oc2cncc(Cl)c2)cn2cnnc12

IC50	SMILES
0.36 µM	Cc1nnc2c(C(=O)Nc3ccc(F)cn3)cc(Oc3cncc(F)c3)cn12
0.04 µM	COc1cncc(Oc2cc(C(=O)Nc3ccc(F)cn3)c3nccn3c2)c1
0.624 µM	COc1ccc(NC(=O)c2cc(Oc3cncc(Cl)c3)cn3cnnc23)nc1
0.15 µM	Cc1nc(NC(=O)c2cc(Oc3cncnc3)cn3ncnc23)sc1F
0.674 µM	Cc1cccc(NC(=O)c2cc(Oc3cncnc3)cn3cnnc23)n1
0.044 µM	O=C(Nc1ccccn1)c1cc(Oc2cncc(O)c2)cn2ncnc12
0.051 µM	N#Cc1cncc(Oc2cc(C(=O)Nc3ccc(F)cn3)c3nccn3c2)c1
0.189 µM	Cc1nc(NC(=O)c2cc(Oc3cncc(F)c3)cn3ccnc23)ccc1F
0.414 µM	O=C(Nc1cccc(F)n1)c1cc(Oc2cncc(Cl)c2)cn2cnnc12
0.674 µM	N#Cc1cncc(Oc2cc(C(=O)Nc3ccccn3)c3nncn3c2)c1
0.217 µM	[2H]c1nc(NC(=O)c2cc(Oc3cncc(Cl)c3)cn3cnnc23)c([2H])c([2H])c1[2H]
0.085 µM	COc1ccc(NC(=O)c2cc(Oc3cncc(OC)c3)cn3ccnc23)nc1
0.049 µM	Cc1csc(NC(=O)c2cc(Oc3cncc(F)c3)cn3ncnc23)n1
0.039 µM	COc1ccc(NC(=O)c2cc(Oc3cncc(F)c3)cn3ccnc23)nc1
> 10 µM	CCc1cccc(NC(=O)c2cc(Oc3cnc(C)nc3)cn3cnnc23)n1
0.248 µM	CCc1cccc(NC(=O)c2cc(Oc3cncc(F)c3)cn3ccnc23)n1
0.05 µM	Cc1ccc(NC(=O)c2cc(Oc3cccnc3)cn3ncnc23)nc1
0.334 µM	COc1cncc(Oc2cc(C(=O)Nc3cccc(OC)n3)c3ncnn3c2)c1 [drawing 305]
0.469 µM	[2H]c1nc(NC(=O)c2cc(Oc3cncnc3)cn3cnnc23)c([2H])c([2H])c1[2H]
> 10 µM	Cc1ccc(NC(=O)c2cc(Oc3cnc(C)nc3)cn3cnnc23)nc1
0.285 µM	O=C(Nc1ccc(F)cn1)c1cc(Oc2cncc(Cl)c2)cn2cnnc12
0.043 µM	Cc1csc(NC(=O)c2cc(Oc3cccnc3)cn3ncnc23)n1
0.105 µM	N#Cc1cncc(Oc2cc(C(=O)Nc3ccccn3)c3ncnn3c2)c1
0.127 µM	O=C(Nc1ccc(F)cn1)c1cc(Oc2cncc(OC(F)F)c2)cn2ncnc12
2.06 µM	CCc1cccc(NC(=O)c2cc(Oc3cncnc3)cn3cnnc23)n1
